Measurements published in patent US5001234A, “Cyclic hydrocarbons with an aminoalkyl sidechain” (The Upjohn Company, priority 1989, dated 1991).
Structures can show the parent of a compound that is named as a salt.

System: phospholipase A2
Assay: Phospholipase A2 inhibition by at least one of two tests: inhibition of rat neutrophil aggregation, inhibition of hog pancreas PLA2
Format: biochemical
Design: key: Compounds that have been found to have a phospholipase A2 inhibitory or antidiabetic effect as determined by at least one of the above assays are indicated in the Examples and Preparations which follow by the notation "PLA2" and/or "diabetes" respectively; Compounds that have been found to have a phospholipase A2 inhibitory or antidiabetic effect as determined by at least one of the above assays are indicated in the Examples and Preparations which follow by the notation "PLA2" and/or "diabetes" respectively
Details: found in at least one of the assays (rat neutrophil aggregation, FMLP; hog pancreas PLA2)
Description: Inhibition of Rat Neutrophil Aggregation
1. Method for Thioglycolate Broth Preparation
Weigh sufficient thioglycolate medium, USP grade, to prepare a 5% w/v solution in sterile water. Heat the solution for 10 minutes on a boiling water bath. Remove and allow the solution to cool to 20°-25°. Inject 10±0.5 ml intraperitoneally into Sprague-Dawley rats as described below.
2. Method for Rat Peritoneal Leukocyte Collection
Six (6) Sprague-Dawley, pathogen free, female rats (230-270 grams) are injected intraperitoneally with 10.0±0.5 ml thioglyco. late broth. 5% w/v […] prior to sacrifice. After sacrifice by cervical dislocation, leukocytes accumulated in the peritoneal cavity are collected by injecting 30 ml of sterile 0.9% w/v sodium chloride intraperitoneally and vigorously massaging the abdomen to assure uniform dispersion of the cells within the carcass. Use a pasteur pipet to remove approximately 20 ml of fluid with suspended cells from a small incision through the abodominal wall. Collect the cell suspension in plastic culture tubes.
3. Washing and Resuspension of Cells for Aggregation
Centrifuge the cell suspensions isolated above for 10 minutes at 1000 rpm (Sorvall RC.3, HG-4L rotor, 25° C.). Discard the supernatant. Resuspend the cells evenly in 0.9% NaCl to original volume, centrifuge a second time for 10 minutes at 1000 rpm. Discard the supernatant. […]

| Structure (SMILES) | phospholipase A2 inhibitory effect (notation "PLA2") |
| --- | --- |
| CN(C)CCCO[C@H]1CC[C@H]2[C@@H](CC[C@@H]3[C@@H]2CC[C@]2(C)C(NCCCN)CC[C@@H]32)C1 (stereo partly drawn) [Example 10, N-[(3β,5α)-3-[3-(dimethylamino)propoxy]estran.17-yl]-1,3-diaminopropane] | PLA2 |
| C[C@]12CC[C@H]3[C@@H](CC[C@H]4C[C@@H](OCCCN)CC[C@@H]43)[C@@H]1CCC2=O [Preparation 8, N-(3β,5α)-3-(3-aminopropoxy)estran-17-one] | PLA2 |

System: KKA^y mice with spontaneous diabetes
Assay: Blood glucose lowering in the KKA^y mouse
Format: in vivo
Design: key: Compounds that have been found to have a phospholipase A2 inhibitory or antidiabetic effect as determined by at least one of the above assays are indicated in the Examples and Preparations which follow by the notation "PLA2" and/or "diabetes" respectively; Compounds that have been found to have a phospholipase A2 inhibitory or antidiabetic effect as determined by at least one of the above assays are indicated in the Examples and Preparations which follow by the notation "PLA2" and/or "diabetes" respectively
Details: compound 1 mg/gram of chow, nonfasting blood glucose on day 4 of treatment
Description: All KKA^y mice used for screening are produced and selected by methods previously outlined, T. Fujita et al., Diabetes, 32 804-10 (1983). Groups of 6 animals each are employed.
Pre-treatment nonfasting blood glucose (NFBG) samples are measured 5 days prior to the start of a screening run by previously described methodologies. These blood sugar values are used to place animals into groups with equal mean blood glucose concentrations and to eliminate any mice with a NFBG value <250 mg/dl. On day 0, compounds chosen to be run are incorporated into ground mouse chow (Purina 5015). Compounds are included at a rate of 1 mg/gram of chow. Generally, 300 g of drugs containing diet is prepared for each group. Mice receiving ground chow only are the negative control. Each screening run also uses ciglitazone (T. Fujita, et al., supra) as a positive control (0.5 to 1.0 mg/gram chow).
Initial body and food weights are taken on day 1. Food is placed in a crock which contains an adequate amount to last for the length of the study. In order to acclimate the mice from pelleted mouse chow to ground mouse chow, they are fed the ground chow for 9 days prior to use in the screen. On day 4 of treatment, a NFBG sample is again measured, as well as food and body weights. Food consumption measurements are used to determine an average mg/kg dose the mice received over the testing period, and to evaluate the compound's effect on food consumption.
3. Acceptance of a Screening Run and Determination of Activity
Acceptance and activity are determined by the following criteria:
This group must not show a significant change (p<0.05) from pre-to post-treatment. If there is a significant decrease in blood sugar the run is not valid.
This group must show a significant depression in blood sugar mean levels from pre- to post-treatment. A lack of activity in this group would also invalidate the run.
C. Negative Control vs. Positive Control
This contrast must be significant. It is a further assurance that both control groups performed as expected.
A compound's activity is based on several criteria:
(1) A significant decrease in blood sugar mean levels from pre- to post-treatment.
(2) Negative control vs. compound: This contrast allows one to determine if these groups are dissimilar, which is required for the compound to be considered active.

| Structure (SMILES) | antidiabetic effect (notation "diabetes") |
| --- | --- |
| C=CCOc1ccc2c(c1)CC[C@@H]1[C@@H]2CC[C@]2(C)[C@@H](NCc3cccc(C(F)(F)F)c3)CC[C@@H]12 [Example 2, 3-Allyloxy-17β-[((3-trifluoromethyl)phenylmethyl)-amino-estra-1,3,5(10)-triene Fumarate] | diabetes |
| C[C@]12CC=CC[C@@H]1CC[C@@H]1[C@@H]2CC[C@]2(C)[C@@H](NCCc3ccc(S(N)(=O)=O)cc3)CC[C@@H]12 [Example 8] | diabetes |
| COc1ccc2c(c1)CC[C@@H]1[C@@H]2[C@@H](O)C[C@]2(C)[C@@H](NCc3cccc(C(F)(F)F)c3)CC[C@@H]12 [Example 5] | diabetes |
| COc1ccc2c(c1)CC[C@@H]1[C@@H]2CC[C@]2(C)[C@@H](NCc3cccs3)CC[C@@H]12 [Example 1, 3-Methoxy-17β-[(2-thienylmethyl)amino]-estra-1,3,5-(10)-triene] | diabetes |
| CN(CCc1ccc(S(N)(=O)=O)cc1)[C@H]1CC[C@H]2[C@@H]3CC[C@H]4CCCC[C@]4(C)[C@H]3CC[C@]12C [Example 6] | diabetes |
| COc1ccc2c(c1)C[C@@H](C)[C@@H]1[C@@H]2CC[C@]2(C)[C@@H](NCc3cccc(C(F)(F)F)c3)CC[C@@H]12 [Example 4, 3-Methoxy-7α-methyl-17β-[((3-trifluoromethyl)phenylmethyl)amino-estra-1,3,5(10)-triene Fumarate Hydrate] | diabetes |
| COc1cc2c(cc1C)[C@H]1CC[C@]3(C)[C@@H](NCCc4ccc(S(N)(=O)=O)cc4)CC[C@H]3[C@@H]1CC2 [Example 7] | diabetes |
| C[C@]12CC[C@@H]3c4ccc(OCCCO)cc4CC[C@H]3[C@@H]1CC[C@@H]2NCc1cccc(C(F)(F)F)c1 [Example 3] | diabetes |
